Measurements: patent US9919060B2 (University Court of the University of Dundee, priority 2009, dated 2018)

What was measured:
CYP1A1 [1] = biological target: T1, CYP1A1 (Homo sapiens, UniProt P04798); conditions: TMS 10 nmol dm^−3; without inhibitor 21 ± 3
T1 sequence (P04798 1-512): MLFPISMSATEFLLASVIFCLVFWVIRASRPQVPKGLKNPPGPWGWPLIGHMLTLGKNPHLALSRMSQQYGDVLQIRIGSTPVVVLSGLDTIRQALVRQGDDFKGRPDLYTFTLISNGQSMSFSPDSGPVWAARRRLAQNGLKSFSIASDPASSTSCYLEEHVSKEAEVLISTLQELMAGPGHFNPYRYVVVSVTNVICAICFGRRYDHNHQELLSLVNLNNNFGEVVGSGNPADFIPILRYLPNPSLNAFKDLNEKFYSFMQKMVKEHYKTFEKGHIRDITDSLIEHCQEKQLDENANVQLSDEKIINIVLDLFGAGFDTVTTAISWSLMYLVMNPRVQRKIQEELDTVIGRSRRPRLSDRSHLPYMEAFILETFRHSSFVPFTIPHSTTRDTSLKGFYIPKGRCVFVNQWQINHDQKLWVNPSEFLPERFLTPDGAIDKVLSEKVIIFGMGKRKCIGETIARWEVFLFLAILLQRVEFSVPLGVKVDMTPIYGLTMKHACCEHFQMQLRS

CYP1B1 = biological target: T2, CYP1B1 (Homo sapiens, UniProt Q16678); assay: CYP1B1 substrate prediction model (Gaussian Kernel weighted k-NN)
T2 sequence (Q16678 1-543): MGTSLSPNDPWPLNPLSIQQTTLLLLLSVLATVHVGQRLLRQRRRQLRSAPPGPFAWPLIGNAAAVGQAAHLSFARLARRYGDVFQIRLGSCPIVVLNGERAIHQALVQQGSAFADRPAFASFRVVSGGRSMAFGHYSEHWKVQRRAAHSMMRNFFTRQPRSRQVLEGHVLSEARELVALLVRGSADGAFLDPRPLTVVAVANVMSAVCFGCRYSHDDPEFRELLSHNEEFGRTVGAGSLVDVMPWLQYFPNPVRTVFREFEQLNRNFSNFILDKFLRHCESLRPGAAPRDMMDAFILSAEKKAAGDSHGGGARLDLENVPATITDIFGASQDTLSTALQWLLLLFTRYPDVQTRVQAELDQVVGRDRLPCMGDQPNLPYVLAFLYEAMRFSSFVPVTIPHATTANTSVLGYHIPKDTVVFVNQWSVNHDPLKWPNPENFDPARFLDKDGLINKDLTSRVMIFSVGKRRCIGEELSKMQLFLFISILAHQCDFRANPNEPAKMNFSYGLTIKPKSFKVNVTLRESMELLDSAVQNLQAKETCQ

CYP1A1 [2] = biological target: T1, CYP1A1; format: cell-based; conditions: TMS 10 nmol dm^−3; without inhibitor 29 ± 4
Method: (§1) Dihydrofolate reductase (DHFR) gene amplification of either human cDNA CYP1A1 or cDNA CYP1B1 in CHO cells was used to achieve high levels of functional enzyme when co-expressed with human P450 reductase (ibid.; Ding S, et al., Biochem J., 356(Pt 2): 613-9, 2001). […] The resulting cell lines were analysed for CYP1A1 or CYP1B1 expression by immunoblotting. […]
(§2) The ethoxyresorufin O-deethylation (EROD) assay is widely used to confirm functional CYP1 activity (Chang T K and Waxman D J, “Enzymatic Analysis of cDNA-Expressed Human CYP1A1, CYP1A2, and CYP1B1 with 7-Ethoxyresorufin as Substrate”, Methods Mol. Biol., 320: 85-90, 2006, the contents of which are incorporated herein by reference). The assay determines O-dealkylation of 7-ethoxyresorufin by CYP1A1, CYP1A2, and CYP1B1 to generate the enzymatic product resorufin, which is monitored continuously by fluorescence emission at 580 nm. […]

[3] = substrate: CCOc1ccc2nc3ccc(=O)cc-3oc2c1; format: cell-based, human; conditions: other: fluorogenic substrate
Method: as §1, §2

## O=P1(N(CCCl)CCCl)NCCCO1 (stereo not drawn) [cyclophosphamide]
wild-type CHO cells
  Toxicity in the CHO cytotoxicity assay at highest concentration: non-toxic

## COc1cc(/C=C/c2ccc(OC)cc2OC)cc(OC)c1 [tetramethoxystilbene]
CYP1A1 [1]
  Specific activity, CHO/CYP1A1, Luciferin-CEE: 20 ± 5 pmol resorufin or luciferin min^−1 mg protein^−1
CYP1B1
  % CYP1B1 substrate inhibition, accuracy (predicted versus actual): 98%
CYP1A1 [2]
  Specific activity, CHO/CYP1A1, ethoxyresorufin: 26 ± 4 pmol resorufin or luciferin min^−1 mg protein^−1

B1: CYP1B1 (Homo sapiens) (protein)
chain: MGTSLSPNDPWPLNPLSIQQTTLLLLLSVLATVHVGQRLLRQRRRQLRSAPPGPFAWPLIGNAAAVGQAAHLSFARLARRYGDVFQIRLGSCPIVVLNGERAIHQALVQQGSAFADRPAFASFRVVSGGRSMAFGHYSEHWKVQRRAAHSMMRNFFTRQPRSRQVLEGHVLSEARELVALLVRGSADGAFLDPRPLTVVAVANVMSAVCFGCRYSHDDPEFRELLSHNEEFGRTVGAGSLVDVMPWLQYFPNPVRTVFREFEQLNRNFSNFILDKFLRHCESLRPGAAPRDMMDAFILSAEKKAAGDSHGGGARLDLENVPATITDIFGASQDTLSTALQWLLLLFTRYPDVQTRVQAELDQVVGRDRLPCMGDQPNLPYVLAFLYEAMRFSSFVPVTIPHATTANTSVLGYHIPKDTVVFVNQWSVNHDPLKWPNPENFDPARFLDKDGLINKDLTSRVMIFSVGKRRCIGEELSKMQLFLFISILAHQCDFRANPNEPAKMNFSYGLTIKPKSFKVNVTLRESMELLDSAVQNLQAKETCQ
[3]
  Km: Ethoxyresorufin for CYP1A1and CYP1B1 Km ~0.27 μmol dm^−3 μmol dm^−3

B2: CYP1A1 (Homo sapiens) (protein)
chain: MLFPISMSATEFLLASVIFCLVFWVIRASRPQVPKGLKNPPGPWGWPLIGHMLTLGKNPHLALSRMSQQYGDVLQIRIGSTPVVVLSGLDTIRQALVRQGDDFKGRPDLYTFTLISNGQSMSFSPDSGPVWAARRRLAQNGLKSFSIASDPASSTSCYLEEHVSKEAEVLISTLQELMAGPGHFNPYRYVVVSVTNVICAICFGRRYDHNHQELLSLVNLNNNFGEVVGSGNPADFIPILRYLPNPSLNAFKDLNEKFYSFMQKMVKEHYKTFEKGHIRDITDSLIEHCQEKQLDENANVQLSDEKIINIVLDLFGAGFDTVTTAISWSLMYLVMNPRVQRKIQEELDTVIGRSRRPRLSDRSHLPYMEAFILETFRHSSFVPFTIPHSTTRDTSLKGFYIPKGRCVFVNQWQINHDQKLWVNPSEFLPERFLTPDGAIDKVLSEKVIIFGMGKRKCIGETIARWEVFLFLAILLQRVEFSVPLGVKVDMTPIYGLTMKHACCEHFQMQLRS
[3]
  Km: Ethoxyresorufin for CYP1A1and CYP1B1 Km ~0.27 μmol dm^−3 μmol dm^−3
